System: PLC5 cells
Test: MTT assay for cell growth inhibition in PLC5 cells
Format: cell-based
Conditions: not given
Description: These compounds were analyzed by MTT assay for cell growth inhibition in the PLC5 cells.
Next, we changed the pyridine to a quinoline ring and amide linker to generate compounds 12-25. These compounds were also analyzed by MTT assay for cell growth inhibition in the PLC5 cells.

| SMILES | IC50 [µM] |
| --- | --- |
| CNC(=O)c1cc(Oc2ccc(NS(=O)(=O)c3ccccc3)cc2)ccn1 [Compound 2, N-Methyl-4-(4-(phenylsulfonamido)phenoxy)picolinamide] | > 40 |
| CNC(=O)c1cc(Oc2ccc(NS(=O)(=O)c3ccc([N+](=O)[O-])cc3)cc2)ccn1 [Compound 3, N-Methyl-4-(4-(4-nitrophenylsulfonamido)phenoxy)picolinamide] | > 40 |
| CNC(=O)c1cc(Oc2ccc(NS(=O)(=O)c3ccc(F)cc3)cc2)ccn1 [Compound 4, 4-(4-(4-Fluorophenylsulfonamido)phenoxy)-N-methylpicolinamide] | > 40 |
| CNC(=O)c1cc(Oc2ccc(NS(=O)(=O)c3ccc(C(C)(C)C)cc3)cc2)ccn1 [Compound 5, 4-(4-(4-tert-Butylphenylsulfonamido)phenoxy)-N-methylpicolinamide] | > 40 |
| CNC(=O)c1cc(Oc2ccc(NS(=O)(=O)c3ccc4ccccc4c3)cc2)ccn1 [Compound 6, N-Methyl-4-(4-(naphthalene-2-sulfonamido)phenoxy)picolinamide] | > 40 |
| CNC(=O)c1cc(Oc2ccc(NS(=O)(=O)c3ccc(C(F)(F)F)cc3Br)cc2)ccn1 [Compound 7, 4-(4-(2-Bromo-4-(trifluoromethyl)phenylsulfonamido)phenoxy)-N-methylpicolinamide] | > 40 |
| CNC(=O)c1cc(Oc2ccc(NS(=O)(=O)c3ccccc3[N+](=O)[O-])cc2)ccn1 [Compound 8, N-Methyl-4-(4-(2-nitrophenylsulfonamido)phenoxy)picolinamide] | > 40 |
| CNC(=O)c1cc(Oc2ccc(NC(=O)c3cc(C(F)(F)F)cc(C(F)(F)F)c3)cc2)ccn1 [Compound 9, 4-(4-(3,5-Bis(trifluoromethyl)benzamido)phenoxy)-N-methylpicolinamide] | > 40 |
| CNC(=O)c1cc(Oc2ccc(NC(=O)c3cc(F)ccc3C(F)(F)F)cc2)ccn1 [Compound 10, 4-(4-(5-Fluoro-2-(trifluoromethyl)benzamido)phenoxy)-N-methylpicolinamide] | > 40 |
| CNC(=O)c1cc(Oc2ccc(NC(=O)c3ccc(C(F)(F)F)cc3)cc2)ccn1 [Compound 11, N-Methyl-4-(4-(4-(trifluoromethyl)benzamido)phenoxy)picolinamide] | > 40 |
| O=[N+]([O-])c1cc(C(F)(F)F)ccc1S(=O)(=O)Nc1ccc(Oc2ccnc3ccccc23)cc1 [Compound 12, 2-Nitro-N-(4-(quinolin-4-yloxy)phenyl)-4-(trifluoromethyl)benzenesulfonamide] | > 40 |
| O=[N+]([O-])c1cc(C(F)(F)F)ccc1S(=O)(=O)Nc1ccc(Oc2ccnc3c([N+](=O)[O-])cccc23)cc1 [Compound 13, 2-Nitro-N-(4-(8-nitroquinolin-4-yloxy)phenyl)-4-(trifluoromethyl)benzenesulfonamide] | > 40 |
| O=S(=O)(Nc1ccc(Oc2ccnc3ccccc23)cc1)c1ccc(C(F)(F)F)cc1Br [Compound 14, 2-Bromo-N-(4-(quinolin-4-yloxy)phenyl)-4-(trifluoromethyl)benzenesulfonamide] | > 40 |
| O=[N+]([O-])c1cccc2c(Oc3ccc(NS(=O)(=O)c4ccc(C(F)(F)F)cc4Br)cc3)ccnc12 [Compound 15, 2-Bromo-N-(4-(8-nitroquinolin-4-yloxy)phenyl)-4-(trifluoromethyl)benzenesulfonamide] | > 40 |
| O=C(Nc1ccc(Oc2ccnc3ccccc23)cc1)c1cc(C(F)(F)F)cc(C(F)(F)F)c1 [Compound 16, N-(4-(Quinolin-4-yloxy)phenyl)-3,5-bis(trifluoromethyl)benzamide] | 16 |
| O=C(Nc1ccc(Oc2ccnc3c([N+](=O)[O-])cccc23)cc1)c1cc(C(F)(F)F)cc(C(F)(F)F)c1 [Compound 17, N-(4-(8-Nitroquinolin-4-yloxy)phenyl)-3,5-bis(trifluoromethyl)benzamide] | > 40 |
| O=C(Nc1ccc(Oc2ccnc3ccccc23)cc1)c1cc(C(F)(F)F)ccc1F [Compound 18, 2-Fluoro-N-(4-(quinolin-4-yloxy)phenyl)-5-(trifluoromethyl)benzamide] | 21.1 |
| O=C(Nc1ccc(Oc2ccnc3c([N+](=O)[O-])cccc23)cc1)c1cc(C(F)(F)F)ccc1F [Compound 19, 2-Fluoro-N-(4-(8-nitroquinolin-4-yloxy)phenyl)-5-(trifluoromethyl)benzamide] | > 40 |
| Cc1cc(NC(=O)c2cc(C(F)(F)F)cc(C(F)(F)F)c2)ccc1Oc1ccnc2c([N+](=O)[O-])cccc12 [Compound 20, N-(3-Methyl-4-(8-nitroquinolin-4-yloxy)phenyl)-3,5-bis(trifluoromethyl)benzamide] | > 40 |
| Cc1cc(NC(=O)c2cc(C(F)(F)F)cc(C(F)(F)F)c2)ccc1Oc1ccnc2c(N)cccc12 [Compound 21, N-(4-(8-Aminoquinolin-4-yloxy)-3-methylphenyl)-3,5-bis(trifluoromethyl)benzamide] | 25.4 |
| CC(=O)Nc1cccc2c(Oc3ccc(NC(=O)c4cc(C(F)(F)F)cc(C(F)(F)F)c4)cc3C)ccnc12 [Compound 22, N-(4-(8-Acetamidoquinolin-4-yloxy)-3-methylphenyl)-3,5-bis(trifluoromethyl)benzamide] | > 40 |
| O=C(Nc1cccc(Oc2ccnc3c([N+](=O)[O-])cccc23)c1)c1cc(C(F)(F)F)cc(C(F)(F)F)c1 [Compound 23, N-(3-(8-Nitroquinolin-4-yloxy)phenyl)-3,5-bis(trifluoromethyl)benzamide] | > 40 |
| Nc1cccc2c(Oc3cccc(NC(=O)c4cc(C(F)(F)F)cc(C(F)(F)F)c4)c3)ccnc12 [Compound 24, N-(3-(8-Aminoquinolin-4-yloxy)phenyl)-3,5-bis(trifluoromethyl)benzamide] | 19 |
| CC(=O)Nc1cccc2c(Oc3cccc(NC(=O)c4cc(C(F)(F)F)cc(C(F)(F)F)c4)c3)ccnc12 [Compound 25, N-(3-(8-Acetamidoquinolin-4-yloxy)phenyl)-3,5-bis(trifluoromethyl)benzamide] | 10.8 |

System: p-STAT3, cyclin D1, survivin, Mc1-1
Test: Western blot of STAT3-related proteins in HCC cells
Format: cell-based
Conditions: PLC5 cells, 5 and 10 μM, 24 h
Description: Cells were treated with various compounds at 5 and 10 μM for 24 h. Cell lysates were analyzed by western blot.
HCC cells treated with SC-43 (10 μM for 24 h) were collected with RIPA lysis buffer. Antibodies for immunoblotting such as cyclin D1 was purchased from Santa Cruz Biotechnology. Other antibodies such as survivin, phospho-STAT3 (Tyr705), STAT3, Mc1-1, SOCS1, and SOCS3 were from Cell Signaling.

| SMILES | cyclin D1 and survivin level |
| --- | --- |
| O=[N+]([O-])c1cc(C(F)(F)F)ccc1S(=O)(=O)Nc1ccc(Oc2ccnc3ccccc23)cc1 [Compound 12, 2-Nitro-N-(4-(quinolin-4-yloxy)phenyl)-4-(trifluoromethyl)benzenesulfonamide] | had no effect on either protein |

System: HCC cells
Test: cells
Conditions: not given
Source text: Points, mean; bars, SD (n=6).
Points, mean; bars, SD ([…]). […] The N-SH2 domain is in orange, the C-SH2 domain is in marine, the PTP domain is in hot pink, and the linkers between them are in gray. […] ELISA, enzyme-linked immunosorbent assay.

| SMILES | viability of HCC cells / cytotoxicity |
| --- | --- |
| N#Cc1ccc(Oc2cc(NC(=O)Nc3ccc(Cl)c(C(F)(F)F)c3)ccc2F)cc1 [SC-111, 1-(4-chloro-3-(trifluoromethyl)phenyl)-3-(3-(4-cyanophenoxy)-4-fluorophenyl)urea] | exhibits antitumor effect in vitro |

System: HCC cells
Test: Apoptosis analysis by flow cytometry (sub-G1)
Format: cell-based
Conditions: HCC cells, 24 h
Description: Apoptotic cells were measured by flow cytometry (sub-G1). After treatment with various compounds, cells were trypsinized, collected by centrifugation and resuspended in PBS. After centrifugation, the cells were washed in PBS and resuspended in […] (PI) staining solution. Specimens were incubated in the dark for 30 min at 37° C. and then analyzed with an EPICS Profile II flow cytometer (Coulter Corp., Hialeah, Fla.). All experiments were performed in triplicate
Collected cells were fixed in 75% Ethanol and stained with 20 ug/ml Propidium Iodide (PI). Sub-G1 analysis was performed by flow-cytometry. […] Points, mean; bars, SD (n=6).

| SMILES | apoptosis (sub-G1) |
| --- | --- |
| O=S(=O)(Nc1cccc(Oc2ccn3cc(-c4ccccc4)nc3c2)c1)c1cccc(C(F)(F)F)c1 [SC-37, N-(3-(2-phenylimidazo[1,2-a]pyridin-7-yloxy)phenyl)-3-(trifluoromethyl)benzenesulfonamide] | has no activity in inducing cancer cell apoptosis |
| N#Cc1ccc(Oc2cccc(NC(=O)C3(C(=O)Nc4cccc(Oc5ccc(C#N)cc5)c4)CC3)c2)cc1 [SC-67, N,N′-bis(3-(4-cyanophenoxyl)phenyl)cyclopropane-1,1-dicarboxamide] | has no activity in inducing cancer cells (PLC5) apoptosis |
